Reference: US10662204B2 (PFIZER INC., priority 2018, dated 2020)

Experiments:
[1] = target: T1, GDP-loaded KRAS (1-169) G12C, C51S, C80L, C118S (Homo sapiens, UniProt P01116, C118S/C51S/C80L/G12C); assay: Mass Spectrometry Reactivity Assay (MSRA): covalent adduct of compound and KRAS G12C, Percent Modification; type: binding; details: for MSRA (% modification) 5.0 μM 0.25 hr / MSRA (% modification) 5.0 μM 0.017 hr: 5.0 μM compound; for MSRA (% modification) 10 μM 0.25 hr / MSRA (% modification) 10 μM 0.50 hr: 10 μM compound
T1 construct: GDP-loaded KRAS (1-169) G12C, C51S, C80L, C118S
In short: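 GDP-loaded KRAS(1-169) G12C/C51S/C80L/C118S at 5 μM in 25 mM Hepes pH 7.5, 200 mM NaCl, 5% glycerol incubated at RT with compound (typically 5 or 10 μM final, 1% DMSO). Quenched in formic acid at 1-60 min; intact-protein LC-TOF MS gives % modification = modified/(modified+unmodified).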

KRAS G12C = KRAS G12C (Homo sapiens, UniProt P01116, G12C); assay: Cell Activity Assay: accumulation of GDP-bound KRAS G12C in MIAPaCa-2 cells (Raf-1 RBD capture, MSD readout); type: cell-based; set-up: endogenous in cells; host or cells: MIAPaCa-2; details: 6 hours, assay limit is 30.00
In short: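 MIAPaCa-2 cells exposed 6 h at 37 °C to 3-fold compound dilutions (0.3% DMSO final), then lysed. Active GTP-KRAS captured on Raf-1 RBD-coated plates, detected with anti-pan-Ras and SULFO-TAG secondary by MSD electrochemiluminescence. Signal normalized to DMSO and maximum inhibition; IC50 from 4-parameter fit.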

MSRA (% modification) 5.0 μM 0.25 hr [1] [%]	MSRA (% modification) 10 μM 0.25 hr [1] [%]	IC50 (KRAS G12C) [µM]	MSRA (% modification) 5.0 μM 0.017 hr [1] [%]	MSRA (% modification) 10 μM 0.50 hr [1] [%]	Compound
19	74	0.16	–	–	C=CC(=O)N1CCN(c2nc(OC[C@@H]3CCCN3C)nc3c(Oc4c(C)c(Cl)cc5[nH]ncc45)nccc23)CC1 [Example 13B, 1-[4-(8-[(6-chloro-5-methyl-1H-indazol-4-yl)oxy]-2-{[(2S)-1-methylpyrrolidin-2-yl]methoxy}pyrido[3,4-d]pyrimidin-4-yl)piperazin-1-yl]prop-2-en-1-one]
–	80	0.075	–	–	C=CC(=O)N1CCN(c2nc(OC[C@@H]3C[C@H](F)CN3C)nc3c(Oc4c(Cl)c(F)cc5[nH]ncc45)nc(Cl)cc23)CC1 [Example 21G, 1-[4-(6-chloro-8-[(5-chloro-6-fluoro-1H-indazol-4-yl)oxy]-2-{[(2S,4S)-4-fluoro-1-methylpyrrolidin-2-yl]methoxy}pyrido[3,4-d]pyrimidin-4-yl)piperazin-1-yl]prop-2-en-1-one]
–	74	0.246	–	–	C=CC(=O)N1CCN(c2ncnc3c(Oc4c(Cl)c(F)cc5[nH]ncc45)nc(Cl)cc23)[C@@H](C)C1 [Example 39A, 1-[(3S)-4-{6-chloro-8-[(5-chloro-6-fluoro-1H-indazol-4-yl)oxy]pyrido[3,4-d]pyrimidin-4-yl}-3-methylpiperazin-1-yl]prop-2-en-1-one]
–	–	0.01	73	–	C=CC(=O)N1CCN(c2nc(Oc3cccc4c3CN(C)CC4)nc3c(Oc4c(Cl)c(F)cc5[nH]ncc45)nccc23)CC1 [Example 42I, 1-(4-{8-[(5-chloro-6-fluoro-1H-indazol-4-yl)oxy]-2-[(2-methyl-1,2,3,4-tetrahydro-isoquinolin-8-yl)oxy]pyrido [3,4-d]pyrimidin-4-yl}piperazin-1-yl)prop-2-en-1-one]
71	60	0.585	–	62	C=CC(=O)N1CCN(c2nc(N3CC(N(C)C)C3)nc3c(Oc4c(Cl)c(C)cc5[nH]ncc45)nccc23)CC1 [Example 04E, 1-(4-{8-[(5-chloro-6-methyl-1H-indazol-4-yl)oxy]-2-[3-(dimethylamino)azetidin-1-yl]pyrido[3,4-d]pyrimidin-4-yl}piperazin-1-yl)prop-2-en-1-one]
–	63	0.622	–	–	C=CC(=O)N1CCN(c2ncnc3c(Oc4c(Cl)c(F)cc5[nH]ncc45)nc(Cl)cc23)C[C@H]1C [Example 37A, 1-[(2R)-4-{6-chloro-8-[(5-chloro-6-fluoro-1H-indazol-4-yl)oxy]pyrido[3,4-d]pyrimidin-4-yl}-2-methylpiperazin-1-yl]prop-2-en-1-one]
–	–	18.2	–	21	C=CC(=O)N1CCN(c2ncnc3c(Oc4c(C(F)(F)F)ccc5[nH]ncc45)nccc23)CC1 [Example 04C, 1-[4-(8-{[5-(trifluoromethyl)-1H-indazol-4-yl]oxy}pyrido[3,4-d]pyrimidin-4-yl)piperazin-1-yl]prop-2-en-1-one]
–	–	0.052	51	–	C=CC(=O)N1CCN(c2nc(O[C@@H]3CCN(CCOC)C[C@H]3C)nc3c(Oc4c(Cl)c(F)cc5[nH]ncc45)nc(Cl)cc23)CC1 (racemic) [Example 33G, rac-1-[4-(6-chloro-8-[(5-chloro-6-fluoro-1H-indazol-4-yl)oxy]-2-{[(3R,4R)-1-(2-methoxyethyl)-3-methylpiperidin-4-yl]oxy}pyrido[3,4-d]pyrimidin-4-yl)piperazin-1-yl]prop-2-en-1-one]
–	–	0.039	74	–	C=CC(=O)N1CCN(c2nc(O[C@@H]3CN(C)C[C@H]3OC)nc3c(Oc4c(Cl)c(F)cc5[nH]ncc45)nccc23)[C@@H](C)C1 [Example 33I, 1-[(3S)-4-(8-[(5-chloro-6-fluoro-1H-indazol-4-yl)oxy]-2-{[(3R,4R)-4-methoxy-1-methyl-pyrrolidin-3-yl]oxy}pyrido [3,4-d]pyrimidin-4-yl)-3-methyl-piperazin-1-yl]prop-2-en-1-one]
–	–	0.135	26	–	C=CC(=O)N1CCN(c2nc(O[C@@H]3CN(C)C[C@@H]3C)nc3c(Oc4c(Cl)c(F)cc5[nH]ncc45)nc(Cl)cc23)CC1 (racemic) [Example 31G, rac-1-[4-(6-chloro-8-[(5-chloro-6-fluoro-1H-indazol-4-yl)oxy]-2-{[(3R,4R)-1,4-dimethylpyrrolidin-3-yl]oxy}pyrido[3,4-d]pyrimidin-4-yl)piperazin-1-yl]prop-2-en-1-one]
–	–	22.2	–	7	C=CC(=O)N1CCN(c2ncnc3c(Oc4c(C)ccc5[nH]nc(Cl)c45)nccc23)CC1 [Example 16C, 1-(4-{8-[(3-chloro-5-methyl-1H-indazol-4-yl)oxy]pyrido[3,4-d]pyrimidin-4-yl}piperazin-1-yl)prop-2-en-1-one]
–	–	0.021	75	–	C=CC(=O)N1CCN(c2nc(O[C@@H]3CN(C)C[C@H]3OC)nc3c(Oc4c(Cl)ccc5[nH]ncc45)nc(Cl)cc23)CC1 [Example 38G, 1-[4-(6-chloro-8-[(5-chloro-1H-indazol-4-yl)oxy]-2-{[(3R,4R)-4-methoxy-1-methylpyrrolidin-3-yl]oxy}pyrido[3,4-d]pyrimidin-4-yl)piperazin-1-yl]prop-2-en-1-one]
–	–	> 30	–	34	C=CC(=O)N1CCN(c2ncnc3c(Oc4c(C)c(Cl)cc5[nH]ncc45)nc(C#N)cc23)C[C@@H]1C [Example 33A, 4-[(3S)-4-acryloyl-3-methylpiperazin-1-yl]-8-[(6-chloro-5-methyl-1H-indazol-4-yl)oxy]pyrido[3,4-d]pyrimidine-6-carbonitrile]
70	–	0.074	–	–	C=CC(=O)N1CCN(c2nc(Oc3cccnc3C(C)C)nc3c(Oc4c(Cl)c(F)cc5[nH]ncc45)nccc23)CC1 [Example 05I, 1-[4-(8-[(5-chloro-6-fluoro-1H-indazol-4-yl)oxy]-2-{[2-(propan-2-yl)pyridin-3-yl]oxy}pyrido [3,4-d]pyrimidin-4-yl)piperazin-1-yl]prop-2-en-1-one]
–	–	6.45	–	34	C=CC(=O)N1CCN(c2ncnc3c(Oc4c(C)ccc5[nH]ncc45)nc(C#N)cc23)CC1 [Example 18A, 4-(4-acryloylpiperazin-1-yl)-8-[(5-methyl-1H-indazol-4-yl)oxy]pyrido[3,4-d]pyrimidine-6-carbonitrile]
–	–	4.66	–	12	C=CC(=O)N1CCN(c2ncnc3c(Cc4c(C)ccc5[nH]ncc45)nccc23)CC1 [Example 02D, 1-(4-{8-[(5-methyl-1H-indazol-4-yl)methyl]pyrido[3,4-d]pyrimidin-4-yl}piperazin-1-yl)prop-2-en-1-one]
–	21	28	–	33	C=CC(=O)N1CCN(c2ncnc3c(Oc4c(Cl)c(C)cc5[nH]ncc45)nc(C#N)cc23)CC1 [Example 19A, 4-(4-acryloylpiperazin-1-yl)-8-[(5-chloro-6-methyl-1H-indazol-4-yl)oxy]pyrido[3,4-d]pyrimidine-6-carbonitrile]
